From US5068253A, “Treatment of a microbial infection with drugs containing para-acetamidobenzoic acid” (priority 1990, dated 1991)
Values joined by “and” are separate entries in the source; they are usually repeats but may differ in a detail not shown here. Identical values can stand only once. Counter-ions that a name gives are not always drawn.

How the values were obtained:
[1] = system: P. carinii; assay: Drug inhibition assay: [3H]PABA incorporation into reduced folates by P. carinii organisms; format: cell-based, Pneumocystis carinii; details: for activity at 10000 µM: drug 1 × 10^-2 M, 0 = total inhibition
Experimental: The following assay, used previously to assess drug activity against P. carinii or T. gondii [Kovacs et al., J. Infectious Diseases 160:312-320 (1989)], was used to test drugs for their ability to adversely affect the metabolism of pneumocystis and toxoplasma.
An animal model of Pneumocystis carinii pneumonia was used to obtain organisms. This model involves treating rats, usually Sprague-Dawley rats, with a corticosteroid, in the present case dexamethasone (1-2 mg/L of drinking water) for 6-10 weeks. Tetracycline is included in the water (1 mg/mL) to prevent bacterial superinfection. Such immunosuppressed rats will develop P. carinii pneumonia spontaneously, and P. carinii organisms are obtained by removing the lungs in a sterile manner, cutting up the lungs and disrupting them with a Stomacher (Tekmar), which makes a suspension of organisms and cells. The P. carinii organisms are then partially purified by Ficoll-Hypaque density gradient centrifugation, washed in phosphate buffered saline (PBS), and used in the following experiment.
For drug inhibition studies, organisms are incubated with drugs at varying concentrations for 2-h in paraaminobenzoic acid-free (PABA-free) and folate-free RPMI before pulsing with [^3 H]PABA.
Organisms are harvested after an 18-24 h pulse and washed twice in phosphate buffered saline (PBS). Folates are extracted as previously described [Allegra et al., J. Biol. Chem. 261:6478-6485 (1986)]. The organism pellet is heated at 100° C. for 1 min in 2% sodium ascorbate, pH 6.0, and 2% 2-mercaptoethanol; after centrifugation, the supernatant is treated with partially purified porcine kidney conjugase for 30 min at 37° C. to convert all folates to monoglutamates. After an additional boiling with sodium ascorbate and 2-mercaptoethanol, the folates are extracted into methanol using a C-18 cartridge (Sep-Pak, Waters Chromatography Division, Milford, Mass.) and concentrated under a stream of nitrogen.
The individual folates are resolved by high-performance liquid chromatography (HPLC) using a C8 μBondapak column (Waters Chromatography) under isocratic conditions; the running buffer is 15% ethanol and 85% Pic A (Waters Chromatography), pH 5.5 Radioactivity is determined by an in-line scintillation counter (Flow 1 Beta, model CR, Radiomatic Instruments, Tampa, Fla.). Unlabeled folates are included in each run as internal controls.
Results are presented as the percentage of total radiolabel incorporated into reduced folates compared with untreated controls.

[2] = molecular target: T1, Dihydropteroate synthase (DHPS) (Pneumocystis carinii, UniProt P29251); assay: Catalytic DHPS assay, crude enzyme preparation from P. carinii; format: biochemical; details: for inhibition at 1000 µM / inhibition at 100 µM / inhibition at 10 µM / Percent DHPS Inhibition: P. carinii, single runs; for inhibition at 1000 µM / inhibition at 100 µM / inhibition at 10 µM: read-out: Percent DHPS Inhibition
T1 construct: Enzyme preparations were made by resuspending P. carinii or T. gondii organisms in 1 ml PBS, sonicating to disrupt the organisms; endogenous in cells; host or cells: P. carinii organisms partially purified from lungs of dexamethasone-treated rats; supernatant of sonicate used as crude enzyme
T1 sequence (P29251 1-740): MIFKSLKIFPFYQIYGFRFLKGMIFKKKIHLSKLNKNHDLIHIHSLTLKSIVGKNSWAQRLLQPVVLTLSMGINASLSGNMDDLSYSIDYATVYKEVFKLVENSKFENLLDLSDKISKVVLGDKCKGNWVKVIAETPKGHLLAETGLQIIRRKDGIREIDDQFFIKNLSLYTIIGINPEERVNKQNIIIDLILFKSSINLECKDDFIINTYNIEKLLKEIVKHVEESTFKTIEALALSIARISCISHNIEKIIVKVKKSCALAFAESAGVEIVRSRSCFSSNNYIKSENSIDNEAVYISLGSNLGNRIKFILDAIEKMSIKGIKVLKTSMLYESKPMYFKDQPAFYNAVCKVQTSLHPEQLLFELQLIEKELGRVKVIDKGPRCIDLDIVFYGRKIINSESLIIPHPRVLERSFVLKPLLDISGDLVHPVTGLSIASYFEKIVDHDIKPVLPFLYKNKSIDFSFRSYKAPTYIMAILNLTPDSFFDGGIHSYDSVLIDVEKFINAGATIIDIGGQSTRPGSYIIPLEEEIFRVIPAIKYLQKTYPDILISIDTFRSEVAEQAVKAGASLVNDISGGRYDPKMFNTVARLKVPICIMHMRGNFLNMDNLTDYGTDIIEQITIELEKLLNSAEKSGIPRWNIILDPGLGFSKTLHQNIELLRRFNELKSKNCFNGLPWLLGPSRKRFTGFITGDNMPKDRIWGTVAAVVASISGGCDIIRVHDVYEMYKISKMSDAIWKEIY
Experimental: (§1) Dihydropteroate synthase (DHPS) is an enzyme of the de novo folate synthesis pathway which is known to be susceptible to sulfonamides. […] has a structural similarity to PABA (paraamino benzoic acid), one of the substrates of DHPS. To determine whether DHPS is the target for PAcBA, a catalytic DHPS assay as previously described [Allegra et al., J. Clin. Invest. 85:371-379 (1990)] was used.
(§2) Briefly, assay tubes contain 5 mM MgCl2, 5 mM DTT, 10 μM H2 PtCH2 OPP, 1 μM [^3 H]pABA (final sp act, 2 Ci/mmol), and 40 mM Tris/HCl, pH 8.3, in a total reaction volume of 100 μl. Various concentrations of inhibitors are added as needed. Enzyme preparations were made by resuspending P. carinii or T. gondii organisms in 1 ml PBS, sonicating to disrupt the organisms, and pelleting the cellular debris. The supernatant was saved and used as the crude enzyme preparation. Reactions are initiated by the addition of 50 μl of enzyme preparation. After a 30-min incubation at 37° C. the reaction tubes are placed on ice to terminate the reactions, and then spotted onto 3×30-cm strips of 3 MM chromatography paper (Whatman Laboratory Products Inc.). The strips are developed in a descending chromatography tank using an elution buffer of 0.1M KH2 PO4, pH 7.0. The origins containing the labeled products of the reaction are cut from the strips, placed in scintillation vials, and counted in a liquid scintillation counter (Packard Tri-Carb; Packard Instrument Co. Inc., Downers Grove, Ill.) 24 h after the addition of 9.5 ml of counting cocktail (3A70b; Research Products International Corp., Mt. Prospect, Ill.).
(§3) The results of the DHPS inhibition assay carried out on P. carinii (PC) and T. gondii (Toxo) using the indicated composition are shown below in Table II.

[3] = molecular target: T2, Dihydropteroate synthase (DHPS) (Toxoplasma gondii, UniProt A0A7J6K300); assay: Catalytic DHPS assay, crude enzyme preparation from T. gondii; format: biochemical
T2 construct: crude supernatant of sonicated T. gondii RH organisms from mouse peritoneum; bifunctional HPPK-DHPS polypeptide
T2 sequence (A0A7J6K300 1-748): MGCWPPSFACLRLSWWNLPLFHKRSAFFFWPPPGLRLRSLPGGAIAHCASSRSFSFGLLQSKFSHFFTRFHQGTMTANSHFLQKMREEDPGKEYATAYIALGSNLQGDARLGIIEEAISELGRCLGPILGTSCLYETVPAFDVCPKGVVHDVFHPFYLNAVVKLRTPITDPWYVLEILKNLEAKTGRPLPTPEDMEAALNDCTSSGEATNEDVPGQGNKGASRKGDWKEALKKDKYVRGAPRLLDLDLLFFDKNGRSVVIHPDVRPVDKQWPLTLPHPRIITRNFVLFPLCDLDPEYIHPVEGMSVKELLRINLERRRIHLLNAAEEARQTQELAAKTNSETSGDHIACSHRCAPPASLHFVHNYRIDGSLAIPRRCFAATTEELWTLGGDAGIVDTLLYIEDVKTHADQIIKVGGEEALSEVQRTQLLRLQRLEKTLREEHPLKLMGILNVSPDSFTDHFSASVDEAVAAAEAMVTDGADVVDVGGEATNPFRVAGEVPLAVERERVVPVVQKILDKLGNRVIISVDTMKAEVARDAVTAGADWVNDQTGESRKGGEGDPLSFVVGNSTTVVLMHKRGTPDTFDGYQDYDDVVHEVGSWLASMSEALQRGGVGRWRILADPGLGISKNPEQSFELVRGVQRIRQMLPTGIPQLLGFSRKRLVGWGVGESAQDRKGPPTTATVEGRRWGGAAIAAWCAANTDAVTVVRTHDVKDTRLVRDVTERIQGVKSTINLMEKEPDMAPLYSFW
Description: The RH strain of Toxoplasma gondii were used in all experiments. Organisms are passed by intraperitoneal inoculation into Balb/c mice every 3 to 4 days. Organisms were harvested by lavaging the peritoneum of infected animals 3 to 4 days after inoculation. Organisms were resuspended in PBS, cells are removed by differential centrifugation, and organisms were then pelleted and utilized in the studies.
as §1, §2, §3

[4] = Pneumocystis carinii, single test runs, 100 = no inhibition, read-out: Results: % of Control (total radiolabel incorporated into reduced folates)
[5] = Pneumocystis carinii, drug 1 × 10^-4 M, single test runs, 100 = no inhibition, read-out: Results: % of Control (total radiolabel incorporated into reduced folates)
[6] = concentration of each value not resolvable: run has fewer values than the concentrations listed for the drug (1 × 10-2 to 1 × 10^-6 M; PAcBA also 3 × 10^-3 M), values of a run in order of falling concentration
[7] = drug 1 × 10^-4 M, single test runs, 100 = no inhibition, 100 µM
[8] = drug 1 × 10^-5 M, single test runs, 100 = no inhibition, 10 µM
[9] = T. gondii, 1 × 10^-4 M, single runs, read-out: Percent DHPS Inhibition
[10] = T. gondii, 1 × 10^-5 M, single runs, read-out: Percent DHPS Inhibition

Compound	activity at 10000 µM [1, 4] [%]	activity at 100 µM [1, 5] [%]	Results: % of Control (total radiolabel incorporated into reduced folates) [1, 6]	inhibition at 1000 µM ([2]; 1 × 10^-3 M) [%]	inhibition at 100 µM ([2]; 1 × 10^-4 M) [%]	inhibition at 10 µM ([2]; 1 × 10^-5 M) [%]	Results: % of Control (total radiolabel incorporated into reduced folates) [1, 7]	Results: % of Control (total radiolabel incorporated into reduced folates) [1, 8]	inhibition at 100 µM [3, 9] [%]	inhibition at 10 µM [3, 10] [%]	Percent DHPS Inhibition ([2]; 1 × 10^-3 M)	Percent DHPS Inhibition ([2]; 1 × 10^-4 M)	Percent DHPS Inhibition ([2]; 1 × 10^-5 M)	also measured
OC[C@H]1O[C@@H](n2cnc3c(O)ncnc32)[C@H](O)[C@@H]1O [Inosine, inosine, reference compound]	57.5	69.8	61.9 % of Control and 57.6 % of Control and 100 % of Control	100	100	100								activity at 1000 µM ([1]; Pneumocystis carinii, drug 1 × 10^-3 M, single test runs, 100 = no inhibition, read-out: Results: % of Control (total radiolabel incorporated into reduced folates)): 100%
CC(O)CN(C)C (stereo not drawn) [1-dimethylamino-2-propanol, reference compound]				81.7	91.6	100	100 % of Control and 71.3 % of Control	95 % of Control and 65.4 % of Control	93.6	100				
CC(=O)Nc1ccc(C(=O)O)cc1 [PAcBA as 1-dimethylamino-2-propanol salt, PAcBA salt of 1-dimethylamino-2-propanol]	0	19					15 % of Control and 20 % of Control	82 % of Control and 44 % of Control and 43 % of Control						Results: % of Control (total radiolabel incorporated into reduced folates) ([1]; drug 1 × 10^-3 M, single test runs, 100 = no inhibition, 1000 µM): 0 % of Control; Results: % of Control (total radiolabel incorporated into reduced folates) ([1]; drug 1 × 10^-6 M, single test runs, 100 = no inhibition, 1 µM): 100 % of Control and 67 % of Control and 74 % of Control; Potency of the salt relative to the free acid PAcBA against P. carinii ([1]; salt versus free acid): approximately 10 fold
CC(=O)Nc1ccc(C(=O)O)cc1 [PAcBA, p-acetamidobenzoic acid]				14.3					21.4	68.4	16.6% and 22.2%	37.9% and 52.6% and 62.1%	70.2% and 100% and 92.2%	Inhibition of P. carinii (in words) ([1]; 1×10^-2 M, 3×10^-3 M, 1×10^-3 M): considerable inhibition; Inhibition of P. carinii (in words) ([1]; 1×10^-4 M): some inhibition; Inhibition of DHPS in P. carinii (in words) [2]: inhibition; Inhibition of DHPS activity in Toxoplasma gondii (in words) [3]: inhibited; inhibition at 1000 µM ([3]; T. gondii, 1 × 10^-3 M, single runs, read-out: Percent DHPS Inhibition): 5.1%; inhibition at 1 µM ([3]; T. gondii, 1 × 10^-6 M, single runs, read-out: Percent DHPS Inhibition): 83.4%
Isoprinosine [reference compound]			100 % of Control								35.6%	87.4%	100%	Inhibition of P. carinii (in words) ([1]; no concentration stated): has inhibition; Percent DHPS Inhibition ([3]; T. gondii, 1 × 10^-3 M, single runs): 7.8%; Percent DHPS Inhibition ([3]; T. gondii, 1 × 10^-4 M, single runs): 28.3%; Percent DHPS Inhibition ([3]; T. gondii, 1 × 10^-5 M, single runs): 76.5%; Percent DHPS Inhibition ([3]; T. gondii, 1 × 10^-6 M, single runs): 100%
